The source of these data is patent US5244795A, “Processes for preparing cholesterol lowering compounds” (Merck & Co., Inc., priority 1992, dated 1993).

What is called zone of inhibition is the size of the clear area around the sample on an inoculated plate.

Values after ≈ are worked out from the molar mass of the structure shown.

What all share (assay type): cell-based
One test relates to Cryptococcus neoformans. Nature of the test: Microdilution broth assay. To be noted: strain MY 1051, 35° C., 24 to 48 hours, read-out: MIC (minimum inhibitory concentration). Here is the method: The broad spectrum antifungal activity of the present compounds was further determined by broth dilution methods. The compounds are particularly active towards filamentous fungi and yeasts including Candida albicans and Crypt. neoformans. The sensitivity of filamentous fungi and yeasts was determined using inhibitor dilution assays in microtiter format. A standardized spore suspension for testing the filamentous fungi was prepared by inoculating sterile distilled water with spores such that 1.5-7.5×10^3 colony forming units were added per well. The microtiter wells were filled with 75 μl of yeast nitrogen base containing 1% Dextrose medium (YNB/D) containing compound. Fifty μl of inoculated YNB/D medium was then added to the wells.
The sensitivity of yeasts was determined by inoculating sterile distilled water with aliquots of a 4-hour yeast culture grown in Yeast Morphology (YM) media at 35° C. and diluting in YNB/D to yield a final concentration of 1.5-7.5×10^3 colony forming units/well. Seventy-five μl of inoculated media was added per well. To test the sensitivity of yeast, compound was solubilized in 10 percent aqueous DMSO at 2.56 mg/ml. The compound was diluted serially in YNB/D from 128 to 0.06 μg/ml. The wells were filled with 75 μl of drug containing media. […] Representative of the antifungal activity are the minimum inhibitory concentration and minimum fungicidal concentration data shown below in Table II: […]
On the technique in general: In broth dilution the organism is exposed to a series of concentrations in liquid medium.

A further test has as its system Cryptococcus albidus. Nature of the test: FISP disc diffusion assay. Details: key: F: clear zone, fuzzy edges; S: slightly hazy zone (some growth observed throughout zone); H: hazy zone (considerable growth observed throughout zone); V: very hazy zone (zone of inhibition is barely discernable); R: zone displays a ring of resistant growth; no qualifier: clear zone throughout, sharp edges. To be noted: 250 μg/ml in CH2Cl2. An excerpt: (§1) The FISP assay employs disc diffusion susceptibility testing methods to generate a spectrum of activity against a panel of representative yeasts, filamentous fungi and bacteria.
(§2) The yeasts employed in the assay are Saccharomyces cerevisiae, Candida albicans, Candida tropicalis, Candida rugosa, Brettanomyces bruxellensis, Torulospora hansenii, Candida guilliermondi, Candida pseudotropicalis, Torulopsis glabrata, Cryptococcus albidus, Cryptococcus laurentii and Kluyveromyces fragilis.
(§3) For carrying out the assay, seeded assay plates are prepared in the following manner according to the type of assay strain.
(§4) Inocula for yeasts and bacterial strains are prepared from overnight broth cultures then diluted into potato dextrose agar to a final concentration of either 40 percent or 70 percent transmission at 660 nm.
(§5) Assay plates for the yeasts and filamentous fungi are prepared by diluting the inoculum into appropriate molten agar medium, cooled to 45° C. to obtain a final concentration of 4 percent.
(§6) The seeded agar media thus prepared are dispensed into petri dishes for assays (11 ml per dish).
(§7) The samples to be tested for production of antifungal agent are applied to 6.2 mm filter paper discs (25 μl/disc) and air dried at 24° C. When the sample to be tested is crude broth, it may be centrifuged prior to application. The discs bearing the material to be tested are then applied employing sterile conditions to the seeded assay plates. The assay plates are then incubated at either 28° C. or 37° C. for 24 hours. In one of the assays for Bacillus subtilis, the sample is applied to a disc previously impregnated with 4M potassium chloride at 25 μl/disc and then air dried.
(§8) Following incubation, the inhibition zones are measured and recorded. The measurements are made from the extreme edge where growth differs from the background zone. The zones are noted as to appearance as fuzzy edge and clear center, hazy throughout, slightly hazy, very hazy or ringed.
(§9) FISP data is reported as the diameter (in mm.) of the zone of inhibition of growth in agar diffusion assays. The zone is determined by measuring growth that differs from the background lawn. A qualifier is also added to describe the zone quality as listed below: no qualifier: clear zone throughout, sharp edges
(In general: In agar diffusion tests the substance spreads into inoculated agar from a disc or well.)

For a further test, the system named is Kluyveromyces fragilis. Nature of the test: FISP disc diffusion assay. Details: key: F: clear zone, fuzzy edges; S: slightly hazy zone (some growth observed throughout zone); H: hazy zone (considerable growth observed throughout zone); V: very hazy zone (zone of inhibition is barely discernable); R: zone displays a ring of resistant growth; no qualifier: clear zone throughout, sharp edges. As to conditions: 250 μg/ml in CH2Cl2.
Description: as §1, §2, §3, §4, §5, §6, §7, §8, §9

For the next test, the system named is Torulospora hansenii. Nature of the test: FISP disc diffusion assay. Details: key: F: clear zone, fuzzy edges; S: slightly hazy zone (some growth observed throughout zone); H: hazy zone (considerable growth observed throughout zone); V: very hazy zone (zone of inhibition is barely discernable); R: zone displays a ring of resistant growth; no qualifier: clear zone throughout, sharp edges. To be noted: 250 μg/ml in CH2Cl2.
Description: as §1, §2, §3, §4, §5, §6, §7, §8, §9

The next test relates to Candida pseudotropicalis. Nature of the test: FISP disc diffusion assay. On the set-up: key: F: clear zone, fuzzy edges; S: slightly hazy zone (some growth observed throughout zone); H: hazy zone (considerable growth observed throughout zone); V: very hazy zone (zone of inhibition is barely discernable); R: zone displays a ring of resistant growth; no qualifier: clear zone throughout, sharp edges. To be noted: 250 μg/ml in CH2Cl2.
Description: as §1, §2, §3, §4, §5, §6, §7, §8, §9

A further test has as its system Cryptococcus laurentii. Nature of the test: FISP disc diffusion assay. Details: key: F: clear zone, fuzzy edges; S: slightly hazy zone (some growth observed throughout zone); H: hazy zone (considerable growth observed throughout zone); V: very hazy zone (zone of inhibition is barely discernable); R: zone displays a ring of resistant growth; no qualifier: clear zone throughout, sharp edges. As to conditions: 250 μg/ml in CH2Cl2.
Description: as §1, §2, §3, §4, §5, §6, §7, §8, §9

The subject of the next test is Candida rugosa. Nature of the test: FISP disc diffusion assay. On the set-up: key: F: clear zone, fuzzy edges; S: slightly hazy zone (some growth observed throughout zone); H: hazy zone (considerable growth observed throughout zone); V: very hazy zone (zone of inhibition is barely discernable); R: zone displays a ring of resistant growth; no qualifier: clear zone throughout, sharp edges. As to conditions: 250 μg/ml in CH2Cl2.
Description: as §1, §2, §3, §4, §5, §6, §7, §8, §9

Test [1] relates to Brettanomyces bruxellensis. Nature of the test: FISP disc diffusion assay. Details: key: F: clear zone, fuzzy edges; S: slightly hazy zone (some growth observed throughout zone); H: hazy zone (considerable growth observed throughout zone); V: very hazy zone (zone of inhibition is barely discernable); R: zone displays a ring of resistant growth; no qualifier: clear zone throughout, sharp edges. As to conditions: 250 μg/ml in CH2Cl2.
Description: as §1, §2, §3, §4, §5, §6, §7, §8, §9

For another test, the system named is Candida tropicalis. Nature of the test: FISP disc diffusion assay. Details: key: F: clear zone, fuzzy edges; S: slightly hazy zone (some growth observed throughout zone); H: hazy zone (considerable growth observed throughout zone); V: very hazy zone (zone of inhibition is barely discernable); R: zone displays a ring of resistant growth; no qualifier: clear zone throughout, sharp edges. As to conditions: 250 μg/ml in CH2Cl2.
Description: as §1, §2, §3, §4, §5, §6, §7, §8, §9

A further test relates to Aspergillus niger. Nature of the test: FISP disc diffusion assay. On the set-up: key to zone quality qualifier: F: clear zone, fuzzy edges; S: slightly hazy zone (some growth observed throughout zone); H: hazy zone (considerable growth observed throughout zone); V: very hazy zone (zone of inhibition is barely discernable); R: zone displays a ring of resistant growth; no qualifier: clear zone throughout, sharp edges. As to conditions: 250 μg/ml in CH2Cl2.
Description: as §1
The filamentous fungi used in the assay were Penicillium sp. Aspergillus niger, Trichoderma sp., Phoma sp., Trichoderma lignorum, Fusarium oxysporum, Ustilago maydis, Ceratocystis ulmi, Alternaria soloni, Verticillium serrae, Botrytis allii, Scopulariopsis communis, Cephalosporium sp., Cercospora beticola, Rhizomucor miehei, Aspergillus flavus and Aspergillus fumigatus.
as §3
Inocula for filamentous fungi are prepared by scraping the surface of stock plates maintained on potato dextrose agar with a moistened sterile dacron swab. The spores and mycelia are then suspended in 10 milliliters of sterile potato dextrose broth and adjusted to 65 percent transmission at 660 nm. […]
Following incubation, the inhibition zones are measured and recorded. […]
FISP data is reported as the diameter (in mm.) of the zone of inhibition of growth in agar diffusion assays. The zone is determined by measuring growth that differs from the background lawn. […]

For the molecule `CC(/C=C/C=C(\C)C(O)C(C)C(=O)O[C@H]1C[C@H](C)C=C2C=C[C@@]3(C)O[C@@H](O)CC(=O)[C@]3(C)[C@H]21)=C\C=C\C(=O)O` (some centres unmarked) [Compound A], the MIC with Cryptococcus neoformans turned out to be 32 µg/mL (≈ 59.2 µM). Further, the zone quality qualifier result in the test on Cryptococcus albidus was “V”; in the test with Kluyveromyces fragilis it was “V”; in the test on Torulospora hansenii, “H”; in the test with Candida pseudotropicalis it was “V”; in the test on Cryptococcus laurentii, “H and V”; with Candida rugosa, “S”. Further, the zone quality qualifier result in [1] was “S”; in the test with Candida tropicalis it was “S”; in the test with Aspergillus niger, “H”. Moreover, in the test with Aspergillus niger (Aspergillus niger, read-out: diameter of the zone of inhibition of growth), the zone of inhibition at 250 µg/mL was 0 mm.
